From patent US9144239B2, “Macrocyclic picolinamides as fungicides” (DOW AGROSCIENCES LLC, priority 2012, dated 2015)
Where two headings read alike, the source gives them in different places.

Assays:
Format in all cases: in vivo
[1] = test system: Puccinia triticina; synonym: Puccinia recondita f. sp. tritici; experiment: Fungicidal activity: wheat brown rust (PUCCRT), wheat seedlings; settings: 100 ppm, wheat
Outline: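 Wheat (Yuma) seedlings at first-leaf stage, inoculated with Puccinia triticina spores before or after treatment, held overnight in dark dew room at 22° C, 100% RH, then greenhouse at 24° C. Acetone solutions diluted with nine volumes water containing 110 ppm Triton X-100, sprayed to run-off. Percent disease control derived from severity (0–100%) relative to untreated plants.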

[2] = test system: Glomerella lagenarium; anamorph: Colletotrichum lagenarium; experiment: Fungicidal activity: cucumber anthracnose (COLLLA); settings: Colletotrichum orbiculare, 24 h, 1 Day Protectant, read-out: Disease Control COLLLA 1DP
Method: Technical grades of materials were dissolved in acetone, which were then mixed with nine volumes of water containing 110 ppm Triton X-100. The fungicide solutions were applied onto wheat seedlings using an automated booth sprayer to run-off. All sprayed plants were allowed to air dry prior to further handling. Wheat plants (variety Yuma) were grown from seed in a greenhouse in 50% mineral soil/50% soil-less Metro mix until the first leaf was fully emerged, with 7-10 seedlings per pot. These plants were inoculated with an aqueous spore suspension of Septoria tritici either prior to or after fungicide treatments. After inoculation the plants were kept in 100% relative humidity (one day in a dark dew chamber followed by two to three days in a lighted dew chamber at 20° C.) to permit spores to germinate and infect the leaf. The plants were then transferred to a greenhouse set at 20° C. for disease to develop. When disease symptoms were fully expressed on the 1st leaves of untreated plants, infection levels were assessed on a scale of 0 to 100 percent disease severity. Percent disease control was calculated using the ratio of disease severity on treated plants relative to untreated plants. Evaluation of Fungicidal Activity: Cucumber Anthracnose (Glomerella lagenarium; Anamorph: Colletotrichum lagenarium; Bayer Code COLLLA) Cucumber seedlings (variety Bush Pickle) were propagated in soil-less Metro mix, with each pot having one plant, and used in the test when 12 to 14 days old. Test plants were inoculated with an aqueous spore suspension of Colletotrichum lagenarium 24 hr after fungicide treatments. After inoculation the plants were kept in a dew room at 22° C. with 100% relative humidity for 48 hr to permit spores to germinate and infect the leaf. The plants were then transferred to a growth room set at 22° C. for disease to develop. Fungicide formulation, application and disease assessment on the sprayed leaves followed the procedures as described in the Example A.

[3] = test system: Blumeria graminis f.sp. tritici; synonym: Erysiphe graminis f.sp. tritici; experiment: Fungicidal activity: wheat powdery mildew (ERYSGT); settings: 24 h, 1 Day Protectant, read-out: Disease Control ERYSGT 1 DP
Method: Technical grades of materials were dissolved in acetone, which were then mixed with nine volumes of water containing 110 ppm Triton X-100. The fungicide solutions were applied onto wheat seedlings using an automated booth sprayer to run-off. All sprayed plants were allowed to air dry prior to further handling. Wheat plants (variety Yuma) were grown from seed in a greenhouse in 50% mineral soil/50% soil-less Metro mix until the first leaf was fully emerged, with 7-10 seedlings per pot. These plants were inoculated with an aqueous spore suspension of Septoria tritici either prior to or after fungicide treatments. After inoculation the plants were kept in 100% relative humidity (one day in a dark dew chamber followed by two to three days in a lighted dew chamber at 20° C.) to permit spores to germinate and infect the leaf. The plants were then transferred to a greenhouse set at 20° C. for disease to develop. When disease symptoms were fully expressed on the 1st leaves of untreated plants, infection levels were assessed on a scale of 0 to 100 percent disease severity. Percent disease control was calculated using the ratio of disease severity on treated plants relative to untreated plants. Evaluation of Fungicidal Activity: Wheat Powdery Mildew (Blumeria graminis f.sp. tritici; Synonym: Erysiphe graminis f.sp. tritici; Bayer Code […]) Wheat plants (variety Yuma) were grown from seed in a greenhouse in 50% mineral soil/50% soil-less Metro mix until the first leaf was fully emerged, with 7-10 seedlings per pot. These plants were inoculated by dusting with infected stock plants 24 hr after fungicide treatments. After inoculation the plants were kept in a greenhouse set at 20° C. for disease to develop. Fungicide formulation, application and disease assessment on the sprayed leaves followed the procedures as described in the Example A.

[4] = test system: Mycosphaerella graminicola; anamorph: Septoria tritici; experiment: Fungicidal activity: leaf blotch of wheat (SEPTTR), wheat seedlings; settings: Zymoseptoria tritici, 100 ppm, wheat
Outline: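 Compounds in acetone were diluted with nine volumes of water containing 110 ppm Triton X-100 and sprayed to run-off on Yuma wheat seedlings at first-leaf stage. Septoria tritici spores were inoculated before or after treatment, followed by dew chambers at 100% RH and 20 °C, then greenhouse at 20 °C. Severity (0–100%) was scored once untreated plants were fully diseased; control was calculated relative to untreated plants.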

[5] = test system: Magnaporthe grisea; anamorph: Pyricularia oryzae; experiment: whole plant or invertebrate; settings: 24 h, read-out: Disease Control PYRIOR 1 DP
[6] = 24 h, 1 Day Protectant, read-out: Disease Control PUCCRT 1DP
[7] = 72 h, 3 Day Curative, read-out: Disease Control PUCCRT 3DC
[8] = 24 h, 1 Day Protectant, read-out: Disease Control SEPTTR 1DP
[9] = 72 h, 3 Day Curative, read-out: Disease Control SEPTTR 3DC

Row | SMILES | pest or weed control at 100 ppm [1, 6] [%] | pest or weed control at 100 ppm [1, 7] [%] | pest or weed control at 100 ppm [2] [%] | pest or weed control at 100 ppm [3] [%] | pest or weed control at 100 ppm [4, 8] [%] | pest or weed control at 100 ppm [4, 9] [%] | pest or weed control at 100 ppm [5] [%]
1 | CCCCO[C@H]1COC[C@H](NC(=O)c2nccc(OC)c2OCOC(C)=O)C(=O)O[C@@H](C)[C@@H]1OCCOC [Compound 54] | 80 to 100 | 80 to 100 | 80 to 100 | 0 to 80 | 0 to 80 | 0 to 80 | 0 to 80
2 | COc1ccnc(C(=O)N[C@H]2COC[C@H](OC)[C@@H](OC)[C@H](C)OC2=O)c1OCOC(C)=O [Compound 65] | – | 0 to 80 | 0 to 80 | – | – | 0 to 80 | –
3 | COc1ccnc(C(=O)N[C@H]2COC[C@H](OCCCc3ccccc3)[C@@H](OCCCc3ccccc3)[C@H](C)OC2=O)c1OCOC(C)=O [Compound 60] | 80 to 100 | 80 to 100 | 80 to 100 | 0 to 80 | 80 to 100 | 0 to 80 | 80 to 100
4 | CCC(C)(C)O[C@H]1COC[C@H](NC(=O)c2nccc(OC)c2OCOC(C)=O)C(=O)O[C@@H](C)[C@@H]1OCC(C)C [Compound 78] | 80 to 100 | 80 to 100 | 80 to 100 | 80 to 100 | 80 to 100 | 80 to 100 | 80 to 100
5 | COc1ccnc(C(=O)N[C@H]2COC[C@H](Oc3ccc(F)cc3)[C@@H](Oc3ccc(F)cc3)[C@H](C)OC2=O)c1OC(C)=O [Compound 229, 2-(((3S,7S,8S,9S)-7,8-bis(4-fluorophenoxy)-9-methyl-2-oxo-1,5-dioxonan-3-yl)carbamoyl)-4-methoxypyridin-3-yl acetate] | – | – | 80 to 100 | – | – | – | 80 to 100
6 | COc1ccnc(C(=O)N[C@H]2COC[C@H](OCC(C)C)[C@@H](OC3CCCCC3)[C@H](C)OC2=O)c1OCOC(C)=O [Compound 77] | 80 to 100 | 80 to 100 | 80 to 100 | 0 to 80 | 80 to 100 | 80 to 100 | 80 to 100
7 | COc1ccnc(C(=O)N[C@H]2COC[C@H](Oc3ccc(F)cc3)[C@@H](Oc3ccc(F)cc3)[C@H](C)OC2=O)c1OCOC(C)=O [Compound 231] | – | – | 80 to 100 | – | – | – | 80 to 100
8 | COc1ccnc(C(=O)N[C@H]2COC[C@H](Oc3ccccc3)[C@@H](OCC(C)C)[C@H](C)OC2=O)c1OCOC(C)=O [Compound 86] | 80 to 100 | 80 to 100 | 80 to 100 | 80 to 100 | 80 to 100 | 80 to 100 | 80 to 100
9 | COc1ccnc(C(=O)N[C@H]2COC[C@H](Oc3ccccc3)[C@@H](Oc3ccccc3)[C@H](C)OC2=O)c1OCOC(C)=O [Compound 84] | 80 to 100 | 80 to 100 | 80 to 100 | 0 to 80 | 80 to 100 | 80 to 100 | 80 to 100
